Assay results reported in ChEMBL document CHEMBL5154929, “Optimization of the Natural Product Calothrixin A to Discover Novel Dual Topoisomerase I and II Inhibitors with Improved Anticancer Activity” (J Med Chem, 2022).
Activity calls are given as the source filed them. The calls are words filed in the database; no cut-off is given here.

Tests used:
[1] = test system: A-375; test: Induction of apoptosis in human A-375 cells assessed as increase in expression level of Bad measured after 24 hrs by Western blotting analysis; assay type: functional, cell-based; settings: dose 40-120 nM, DDE = dose-dependent effect
[2] = Metabolic stability in mouse plasma upto 5 hrs by HPLC-UV analysis; assay type: ADME, cell-free
[3] = test system: A-375; test: In vivo antitumor activity against human A-375 cells xenografted in BALB/c nude mouse assessed as shrinkage of tumor tissue treated after 7 days of tumor implantation on right flank subcutaneously at 10 to 20 mg/kg, iv administered once per 2 days for 14 days measured once every two days; assay type: functional, organism-based; settings: dose 10-20 mg/kg, time 14.0 day
[4] = Microsomal stability in mouse liver microsomes assessed as half life measured at 2 ug/ml upto 60 mins in presence of NADPH generating system and UGT incubation system by phase II metabolic stability kit method; assay type: ADME, Microsome; settings: dose 2 µg/ml
[5] = test system: A-375; test: Induction of apoptosis in human A-375 cells assessed as increase in expression level of C-caspase-8 measured after 24 hrs by Western blotting analysis; assay type: functional, cell-based; settings: dose 40-120 nM, DDE = dose-dependent effect
[6] = In vivo acute toxicity in Balb/C mouse assessed as pathological damage in spleen at 50 mg/kg, iv administered once per 2 days for 7 days measured 24 hrs after last dose by H and E staining method; assay type: organism-based; settings: 168 h, time 7 day
[7] = Tmax in Kunming mouse plasma at 10 mg/kg, iv administered as single dose measured after 5 to 360 mins by HPLC analysis; assay type: ADME, organism-based; settings: time 5-360 min
[8] = biological target: T1, DNA topoisomerase 1 (Homo sapiens) (UniProt P11387); test: Inhibition of DNA topoisomerase I (unknown origin) relaxation activity at 100 uM incubated for 30 mins by chemiDoc system
T1 sequence (whole entry): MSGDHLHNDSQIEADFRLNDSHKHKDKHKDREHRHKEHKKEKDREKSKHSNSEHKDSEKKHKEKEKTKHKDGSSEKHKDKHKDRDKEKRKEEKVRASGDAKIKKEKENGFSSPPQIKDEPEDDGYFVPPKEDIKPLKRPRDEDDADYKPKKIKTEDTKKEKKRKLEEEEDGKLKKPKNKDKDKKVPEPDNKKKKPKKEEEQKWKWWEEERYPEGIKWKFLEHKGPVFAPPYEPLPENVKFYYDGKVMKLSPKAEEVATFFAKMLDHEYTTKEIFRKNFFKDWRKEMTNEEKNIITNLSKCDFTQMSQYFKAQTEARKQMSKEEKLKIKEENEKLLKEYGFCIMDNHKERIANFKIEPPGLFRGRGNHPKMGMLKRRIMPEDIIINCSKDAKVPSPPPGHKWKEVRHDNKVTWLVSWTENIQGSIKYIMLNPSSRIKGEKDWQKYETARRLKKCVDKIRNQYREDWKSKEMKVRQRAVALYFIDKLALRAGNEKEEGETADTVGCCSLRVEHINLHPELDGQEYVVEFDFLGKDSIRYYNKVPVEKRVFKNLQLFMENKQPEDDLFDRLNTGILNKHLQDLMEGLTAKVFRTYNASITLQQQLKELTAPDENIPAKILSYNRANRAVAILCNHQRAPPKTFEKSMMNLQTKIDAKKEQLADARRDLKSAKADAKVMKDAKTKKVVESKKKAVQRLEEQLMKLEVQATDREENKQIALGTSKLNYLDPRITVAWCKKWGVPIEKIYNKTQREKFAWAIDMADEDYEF

[9] = test system: A-375; test: Inhibition of colony formation in human A-375 cells at 20 to 40 nM incubated for 48 hrs by crystal violet staining method; assay type: functional, cell-based; settings: dose 20-40 nM
[10] = biological target: DNA topoisomerase 2-alpha (Homo sapiens) (UniProt P11388); test: Inhibition of human DNA topoisomerase II-alpha relaxation activity at 100 uM incubated for 30 mins by chemiDoc system
Chain of DNA topoisomerase 2-alpha (Homo sapiens) (P11388 whole entry): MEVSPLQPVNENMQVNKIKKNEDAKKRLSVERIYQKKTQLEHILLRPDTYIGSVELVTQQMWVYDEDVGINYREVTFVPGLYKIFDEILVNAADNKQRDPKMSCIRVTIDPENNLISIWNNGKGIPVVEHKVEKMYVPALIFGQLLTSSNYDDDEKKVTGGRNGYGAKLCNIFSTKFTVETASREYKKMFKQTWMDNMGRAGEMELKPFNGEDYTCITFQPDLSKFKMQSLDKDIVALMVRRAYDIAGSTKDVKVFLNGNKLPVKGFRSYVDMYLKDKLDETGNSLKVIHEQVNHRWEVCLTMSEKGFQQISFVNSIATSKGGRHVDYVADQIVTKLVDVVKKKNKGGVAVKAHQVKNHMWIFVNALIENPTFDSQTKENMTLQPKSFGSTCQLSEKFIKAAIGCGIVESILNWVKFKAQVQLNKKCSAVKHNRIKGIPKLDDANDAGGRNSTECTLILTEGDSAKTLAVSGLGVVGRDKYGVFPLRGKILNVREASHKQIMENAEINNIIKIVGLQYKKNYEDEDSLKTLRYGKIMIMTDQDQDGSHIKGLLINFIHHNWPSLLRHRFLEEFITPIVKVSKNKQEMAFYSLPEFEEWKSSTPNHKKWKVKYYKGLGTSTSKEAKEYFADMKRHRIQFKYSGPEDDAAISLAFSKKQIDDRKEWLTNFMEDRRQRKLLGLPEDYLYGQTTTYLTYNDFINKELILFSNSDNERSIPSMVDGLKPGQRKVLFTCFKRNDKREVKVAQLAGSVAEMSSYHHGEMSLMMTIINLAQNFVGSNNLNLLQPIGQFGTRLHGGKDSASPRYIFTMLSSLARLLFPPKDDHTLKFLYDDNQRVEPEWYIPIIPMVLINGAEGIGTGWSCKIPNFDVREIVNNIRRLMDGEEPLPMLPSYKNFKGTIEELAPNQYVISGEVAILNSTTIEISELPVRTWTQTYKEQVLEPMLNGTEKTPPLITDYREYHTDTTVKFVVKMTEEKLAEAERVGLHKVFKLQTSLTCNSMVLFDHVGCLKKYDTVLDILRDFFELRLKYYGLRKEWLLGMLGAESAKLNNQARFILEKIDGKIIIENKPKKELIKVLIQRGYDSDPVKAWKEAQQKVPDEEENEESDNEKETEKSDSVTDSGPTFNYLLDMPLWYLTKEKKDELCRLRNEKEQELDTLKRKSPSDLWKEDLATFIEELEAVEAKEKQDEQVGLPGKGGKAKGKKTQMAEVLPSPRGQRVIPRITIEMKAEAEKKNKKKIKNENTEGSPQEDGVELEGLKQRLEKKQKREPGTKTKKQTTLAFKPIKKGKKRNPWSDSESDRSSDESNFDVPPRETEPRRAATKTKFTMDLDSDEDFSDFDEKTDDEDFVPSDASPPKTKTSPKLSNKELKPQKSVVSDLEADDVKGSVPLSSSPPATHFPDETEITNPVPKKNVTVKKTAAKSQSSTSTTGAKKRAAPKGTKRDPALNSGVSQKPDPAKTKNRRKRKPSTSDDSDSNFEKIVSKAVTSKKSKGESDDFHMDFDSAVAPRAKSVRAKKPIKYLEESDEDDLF

[11] = biological target: T1, DNA topoisomerase 1 (Homo sapiens); test: Poison activity at human topoisomerase I assessed as stabilization of enzyme-DNA cleavage complex by measuring nicked DNA formation at 100 uM after 60 mins by agarose gel electrophoresis method
[12] = test system: A-375; test: Induction of apoptosis in human A-375 cells at 80 nM measured after 16 hrs by Annexin V-FITC and DAPI staining based flow cytometric analysis; assay type: functional
[13] = test system: MCF7; test: Inhibition of colony formation in human MCF7 cells at 20 to 40 nM incubated for 48 hrs by crystal violet staining method; assay type: functional, cell-based; settings: dose 20-40 nM
[14] = test system: A-375; test: Induction of apoptosis in human A-375 cells assessed as increase in expression level of C-caspase-9 measured after 24 hrs by Western blotting analysis; assay type: functional, cell-based; settings: dose 40-120 nM, DDE = dose-dependent effect
[15] = In vivo acute toxicity in Balb/C mouse assessed as mortality at 10 to 50 mg/kg, iv administered once per 2 days for 7 days; assay type: organism-based; settings: 168 h, dose 10-50 mg/kg, time 7 day
[16] = test system: A-375; test: Induction of apoptosis in human A-375 cells assessed as increase in expression level of Bax measured after 24 hrs by Western blotting analysis; assay type: functional, cell-based; settings: dose 40-120 nM, DDE = dose-dependent effect
[17] = In vivo acute toxicity in Balb/C mouse assessed as tolerability at 50 mg/kg, iv administered once per 2 days for 7 days measured every other day; assay type: organism-based; settings: 168 h, time 7 day
[18] = test system: A-375; test: In vivo induction of apoptosis in human A-375 cells xenografted in BALB/c nude mouse assessed as […] treated after 7 days of tumor implantation on right flank subcutaneously at 10 to 20 mg/kg, iv administered once per 2 days for 14 days by measuring TUNEL positive cells under a light microscope; assay type: functional, organism-based; settings: dose 10-20 mg/kg, time 14.0 day
[19] = test system: A-375; test: Induction of apoptosis in human A-375 cells at 80 nM measured after 8 hrs by Annexin V-FITC and DAPI staining based flow cytometric analysis; assay type: functional
[20] = biological target: DNA topoisomerase 2-alpha (Homo sapiens) (UniProt P11388); test: Poison activity at human topoisomerase II-alpha assessed as stabilization of enzyme-DNA cleavage complex by measuring nicked DNA formation at 100 uM after 60 mins by agarose gel electrophoresis method
[21] = AUC in Kunming mouse plasma at 10 mg/kg, iv administered as single dose measured after 5 to 360 mins by HPLC analysis; assay type: ADME, organism-based; parameters: time upper 360 min, time lower 5 min, dose 10 mg/kg, route iv
[22] = Volume of distribution in Kunming mouse plasma at 10 mg/kg, iv administered as single dose measured after 5 to 360 mins by HPLC analysis; assay type: ADME, organism-based; settings: time 5-360 min
[23] = In vivo acute toxicity in Balb/C mouse assessed as pathological damage in lung at 50 mg/kg, iv administered once per 2 days for 7 days measured 24 hrs after last dose by H and E staining method; assay type: organism-based; settings: 168 h, time 7 day
[24] = Toxicity in BALB/c nude mouse xenografted with human A-375 cells assessed as tolerability treated after 7 days of tumor implantation on right flank subcutaneously at 20 mg/kg, iv administered once per 2 days for 14 days measured once every two days; assay type: organism-based; settings: in vivo, 336 h, time 14 day
[25] = test system: A-375; test: Induction of apoptosis in human A-375 cells at 40 nM measured after 24 hrs by Annexin V-FITC and DAPI staining based flow cytometric analysis; assay type: functional
[26] = test system: A-375; test: In vivo antitumor activity against human A-375 cells xenografted in BALB/c nude mouse assessed as decrease in tumor volume treated after 7 days of tumor implantation on right flank subcutaneously at 10 to 20 mg/kg, iv administered once per 2 days for 14 days measured once every two days; assay type: functional, organism-based; settings: dose 10-20 mg/kg, time 14.0 day
[27] = test system: A-375; test: Induction of apoptosis in human A-375 cells assessed as increase in expression level of C-caspase-3 measured after 24 hrs by Western blotting analysis; assay type: functional, cell-based; settings: dose 40-120 nM, DDE = dose-dependent effect
[28] = Cytotoxicity against human L02 cells measured after 72 hrs by MTT assay; assay type: toxicity, cell-based

O=C1c2c[n+]([O-])c3ccccc3c2C(=O)c2c1c1ccccc1n2Cc1cn([C@@H]2C[C@H](O)[C@@H](CO)O2)nn1
Activity [1]: Dde
Stability [2]: Stable
Activity [3]: Active
half-life at 2 ug/ml [4]: 40 min
Activity [5]: Dde
Activity [6]: Non-Toxic
Tmax [7]: 5 min
inhibition [8]: Active
inhibition [9]: Active
inhibition [10]: Active
Activity [11]: Active
Activity [12]: 23.78%
inhibition [13]: Active
Activity [14]: Dde
Activity [15]: Non-Toxic
Activity [16]: Dde
Activity [17]: Non-Toxic
Activity [18]: Active
Activity [19]: 7.14%
Activity [20]: Active
AUC [21]: 48000 ng·h/mL
Vd [22]: 0.234 L/kg
Activity [23]: Non-Toxic
Activity [24]: Non-Toxic
Activity [25]: 23.26%
Activity [26]: Active
Activity [27]: Dde
IC50 at 72 h [28]: 630 nM
